Test system: 379773-124-R-J2-PDC spheroid viability
Test: Anticancer human tumor 379773-124-R-J2-PDC patient-derived endometrial carcinoma cell line growth inhibition [POLQ]
Settings: spheroids with HUVEC and MSC; for IC50: curve of first compound; for viability, T/C: stronger effect = lower value
Summary of the method: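 Complex spheroid viability model combining PDC tumour cells with endothelial (HUVEC) and MSC stromal cells. Novobiocin, ART-558 or RP6685 were tested singly and in combination with standard and investigational anticancer drugs. Each was titrated in half-log steps from near clinical Cmax, or from 10 microM where Cmax was unknown.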

[1] = second compound 0.0316 µM, first compound 0.0316 µM
[2] = second compound 0.0316 µM, first compound 0.1 µM
[3] = second compound 0.0316 µM, first compound 0.316 µM
[4] = second compound 0.0316 µM, first compound 1 µM
[5] = second compound 0.0316 µM, first compound 3.16 µM
[6] = second compound 0.0316 µM, first compound 10 µM
[7] = second compound 0.1 µM, first compound 0.0316 µM
[8] = second compound 0.1 µM, first compound 0.1 µM
[9] = second compound 0.1 µM, first compound 0.316 µM
[10] = second compound 0.1 µM, first compound 1 µM
[11] = second compound 0.1 µM, first compound 3.16 µM
[12] = second compound 0.1 µM, first compound 10 µM
[13] = second compound 0.316 µM, first compound 0.0316 µM
[14] = second compound 0.316 µM, first compound 0.1 µM
[15] = second compound 0.316 µM, first compound 0.316 µM
[16] = second compound 0.316 µM, first compound 1 µM
[17] = second compound 0.316 µM, first compound 3.16 µM
[18] = second compound 0.316 µM, first compound 10 µM
[19] = second compound 1 µM, first compound 0.0316 µM
[20] = second compound 1 µM, first compound 0.1 µM
[21] = second compound 1 µM, first compound 0.316 µM
[22] = second compound 1 µM, first compound 1 µM
[23] = second compound 1 µM, first compound 3.16 µM
[24] = second compound 1 µM, first compound 10 µM
[25] = second compound 3.16 µM, first compound 0.0316 µM
[26] = second compound 3.16 µM, first compound 0.1 µM
[27] = second compound 3.16 µM, first compound 0.316 µM
[28] = second compound 3.16 µM, first compound 1 µM
[29] = second compound 3.16 µM, first compound 3.16 µM
[30] = second compound 3.16 µM, first compound 10 µM
[31] = second compound 10 µM, first compound 0.0316 µM
[32] = second compound 10 µM, first compound 0.1 µM
[33] = second compound 10 µM, first compound 0.316 µM
[34] = second compound 10 µM, first compound 1 µM
[35] = second compound 10 µM, first compound 3.16 µM
[36] = second compound 10 µM, first compound 10 µM
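Further: spheroids exposed to drugs for seven days before readout.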
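Wherever viability, T/C is given: percent viability relative to DMSO vehicle control taken as 100%.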

## C=CC(=O)N1CCN(c2nc(=O)n(-c3c(C)ccnc3C(C)C)c3nc(-c4c(O)cccc4F)c(F)cc23)C(C)C1 (centres undefined) + Cc1cccc(N(C)C(=O)C2C(O)CCN2c2nc(C)cc(C(F)(F)F)c2C#N)c1
Second compound 0.0316 µM
  IC50: > 10 µM
Second compound 0.1 µM
  IC50: > 10 µM
Second compound 0.316 µM
  IC50: > 10 µM
Second compound 1 µM
  IC50: > 10 µM
Second compound 3.16 µM
  IC50: > 10 µM
Second compound 10 µM
  IC50: > 10 µM
[1]
  viability, T/C: 88.5%
[2]
  viability, T/C: 89.8%
[3]
  viability, T/C: 82%
[4]
  viability, T/C: 105%
[5]
  viability, T/C: 77.1%
[6]
  viability, T/C: 76.2%
[7]
  viability, T/C: 84.9%
[8]
  viability, T/C: 77.8%
[9]
  viability, T/C: 87.7%
[10]
  viability, T/C: 74.4%
[11]
  viability, T/C: 80.4%
[12]
  viability, T/C: 86.1%
[13]
  viability, T/C: 91%
[14]
  viability, T/C: 70.4%
[15]
  viability, T/C: 82.8%
[16]
  viability, T/C: 85%
[17]
  viability, T/C: 95.8%
[18]
  viability, T/C: 75.7%
[19]
  viability, T/C: 80%
[20]
  viability, T/C: 81.1%
[21]
  viability, T/C: 95.2%
[22]
  viability, T/C: 75.2%
[23]
  viability, T/C: 87.4%
[24]
  viability, T/C: 64.2%
[25]
  viability, T/C: 84.4%
[26]
  viability, T/C: 90.3%
[27]
  viability, T/C: 87.3%
[28]
  viability, T/C: 86.3%
[29]
  viability, T/C: 86.6%
[30]
  viability, T/C: 78.9%
[31]
  viability, T/C: 78%
[32]
  viability, T/C: 82.1%
[33]
  viability, T/C: 91.8%
[34]
  viability, T/C: 73.5%
[35]
  viability, T/C: 82.8%
[36]
  viability, T/C: 84.3%

## CCc1cc2c(N3CCc4c(cc(Cn5ccnc5)cc4-c4cn(C)nc4C(F)(F)F)C3=O)cc(C)nc2c(OC)n1 + Cc1cccc(N(C)C(=O)C2C(O)CCN2c2nc(C)cc(C(F)(F)F)c2C#N)c1
Second compound 0.0316 µM
  IC50: > 10 µM
Second compound 0.1 µM
  IC50: > 10 µM
Second compound 0.316 µM
  IC50: > 10 µM
Second compound 1 µM
  IC50: 9 µM
Second compound 3.16 µM
  IC50: 6.79 µM
Second compound 10 µM
  IC50: 1.93 µM
[1]
  viability, T/C: 77.2%
[2]
  viability, T/C: 80%
[3]
  viability, T/C: 61.9%
[4]
  viability, T/C: 62.4%
[5]
  viability, T/C: 64%
[6]
  viability, T/C: 48.9%
[7]
  viability, T/C: 92.7%
[8]
  viability, T/C: 69.5%
[9]
  viability, T/C: 56.1%
[10]
  viability, T/C: 58.4%
[11]
  viability, T/C: 55.4%
[12]
  viability, T/C: 46.9%
[13]
  viability, T/C: 78.9%
[14]
  viability, T/C: 72.9%
[15]
  viability, T/C: 67.8%
[16]
  viability, T/C: 59.4%
[17]
  viability, T/C: 60.8%
[18]
  viability, T/C: 51.4%
[19]
  viability, T/C: 77.3%
[20]
  viability, T/C: 68.2%
[21]
  viability, T/C: 68.1%
[22]
  viability, T/C: 59%
[23]
  viability, T/C: 62.4%
[24]
  viability, T/C: 46.6%
[25]
  viability, T/C: 76.4%
[26]
  viability, T/C: 73.6%
[27]
  viability, T/C: 61%
[28]
  viability, T/C: 53.9%
[29]
  viability, T/C: 51.9%
[30]
  viability, T/C: 48.1%
[31]
  viability, T/C: 70.7%
[32]
  viability, T/C: 64%
[33]
  viability, T/C: 61.5%
[34]
  viability, T/C: 49.2%
[35]
  viability, T/C: 50.9%
[36]
  viability, T/C: 41.2%

From PubChem BioAssay AID1963848 (Molecular Pharmacology Branch, DTP, NCI, 2024)
